Results taken from patent US6410515B1, “Peptide, a method for its preparation and a pharmaceutical composition containing the peptide” (Immunotech Developments Inc., priority 1995, dated 2002).
Marks after values point to notes of the source that are not given here.

What was measured:
[1] = Solubility of the peptide; format: physicochemical
Source text: The resulting peptide has the following physical and chemical properties and characteristics: […]

[2] = test system: Splenic cells of the mice; assay: Concavalin A-stimulated proliferation of splenic cells (3H-thymidine); format: cell-based, Balb/c mice; details: 48 h, control 61467
Procedure: The biological effect of the D-iGlu-D-Trp (iDD) was studied in Balb/c mice. […] The preparation under study was added at the beginning of the culture. Concavalin A was used as a mitogen, in a final concentration of 2 μg per well. The plates were incubated at 37° C. and in 5% CO2 for 48 h. 3H-thymidine was incorporated into the cells in the amount of […], 24 h prior to the end of the culture. Proliferation of the cells was measured with the use of a scintillation c-counter and expressed in counts per minute (CPM).

[3] = test system: Intact bone marrow cells (hemopoietic stem cells); assay: Spleen colony formation after in vitro treatment of intact bone marrow cells; format: cell-based, mice; details: for Colony count: Table 4, control 9,0 ± 0,6
Procedure: (§1) The effect of peptides of the present invention on a population of hemopoietic progenitors was studied by testing for colony formation by hemopoietic stem cells in spleens of irradiated mice.
Intact bone marrow cells were incubated at 37° C. for 1 hour with different concentrations of the peptide ranging from […]/ml. The suspension was injected to lethally irradiated recipient mice. After 8 days the animals were killed and spleen colonies were counted.
The treatment was carried out as described above in Example 4(a).

[4] = test system: CFU-S population of bone marrow; assay: Spleen colony and CFU-S count after peptide injection to marrow donor mice; format: in vivo; details: for Colony count: control 10,7 ± 0,5; for CFU-S count: control 2436
Procedure: as §1
The peptide was injected intraperitoneally (IP) at different concentrations to intact mice. After two hours, one day, or two days the animals were killed. The bone marrow from the animals was taken to prepare a suspension of marrow cells, which was injected to lethally irradiated (8.5 Gy) mice. Along with the bone marrow, the recipients received injections of thymocytes. After 9 days, spleen colonies were counted. […]
The treatment was performed as described in Example 4(c).

CFU-S in S-phase = assay: Thymidine suicide test on boosted (4 Gy) bone marrow; format: in vivo, mice; details: for Average colony count: 4 Gy, per 10^5 injected bone marrow cells; for % CFU-S in S-phase: irradiation alone 55,0, intact control 10,5
Procedure: The mechanism of the inhibiting effect of the peptide on hemopoiesis was studied using the “thymidine suicide” test. The method provides an accurate measurement of the percentage of dividing cells (in the S-phase of the cell cycle). A bone marrow suspension is incubated with 3H-thymidine, which kills cells in the S-phase.
The first series of experiments investigated the effect of the peptide on CFU-S proliferation. Such an assay can not be done with intact marrow since the progenitors proliferate very poorly (0 to 15% in a cycle) in intact bone marrow. Consequently, as a source of CFU-S, “boosted” bone marrow was used containing at least 40% proliferating cells. “Boosted” bone marrow was obtained from mouse bone marrow on the 7th day following radiation with a dose of 4 Gy. Donor mice were irradiated with this dose and 5 or 6 days later they received iDD. On day 7 following the irradiation, the bone marrow was examined for the percentage of dividing cells, i.e. the iDD treatment lasted 1 or 2 days. According to the results obtained, when injected two days before the extraction of bone marrow, the peptide inhibited the proliferation so that the percentage of dividing cells was even lower than in intact subjects. When the peptide was injected one day before bone marrow was taken, no effect was observed (Table 7).
Table 7 illustrates the effect of the peptide on cell proliferation in irradiated (4 Gy) bone marrow.

[5] = test system: allogenic bone marrow (C57B1 donor, F1 (CBA×C57B1) recipient); assay: Taking of allogenic bone marrow transplant and survival; format: in vivo, mice
Procedure: The preparations were administered daily for the first 5 days after transplantation of bone marrow transplants of donor mice C57B1 to lethally irradiated recipient mice F1 (CBA×C57B1), starting from the 1st hour after the transplantation.

[6] = test system: lethally irradiated recipient mice; assay: State of hemopoiesis after transplantation of allogenic bone marrow; format: in vivo; details: for Caryocytes in blood: control 1,7 + 0,3; for Lymphocytes, %: control 3
Procedure: In a series of experiments, bone marrow cells (6 million) of one of the parents were transplanted to lethally irradiated recipient mice which were hybrids of the first generation. […] Generally, weight loss is observed and there is a small percent of deaths during the 42-day study.
A day after the bone marrow transplantation, test recipients began to receive therapy. Three schemes of therapy were used: (1) iDD, 10 μg/kg, ip, for 5 days running, with 2-day intervals, for 6 weeks (K+iDD); (2) before transplantation, bone marrow transplants were treated with iDD in vitro for 1 hour at 37° C., 0.2 jig per 2 x 10^6 cells, without […] treatment with the preparation (iDD); and (3) bone marrow was pretreated in vitro as described in scheme 2, followed by iDD therapy as in scheme 1 (iDD+iDD). Control subjects were mice that were transplanted with the bone marrow without any further therapy. These animals received ip injections of the solvent according to the same schedule.

[7] = Peptide IP to donor mice 2 hours before
[8] = Peptide IP to donor mice 1 day before
[9] = Peptide IP to donor mice 2 days before
[10] = iDD + iDD: in vitro pretreatment and iDD therapy
[11] = iDD: transplant treated in vitro only

Question: Which results are given for H-D-iGlu-D-Trp-OH [iDD]?
Answer: Solubility in alcohol ([1]; alcohol): moderately soluble; Solubility in chloroform ([1]; chloroform): insoluble; Solubility in water ([1]; water): readily soluble; CPMI (proliferation, 3H-thymidine) ([2]; Preparation dose 1 μcg/ml): 68594 CPM; CPMI (proliferation, 3H-thymidine) ([2]; Preparation dose 5 μcg/ml): 63428 CPM; CPMI (proliferation, 3H-thymidine) ([2]; Preparation dose 10 μcg/ml): 20043 CPM; CPMI (proliferation, 3H-thymidine) ([2]; Preparation dose 20 μcg/ml): 13222 CPM; Decrease of number of spleen colonies ([3]; Table 4, in the presence of the peptide): more than 50%; Colony count ([3]; peptide dose 0,1 μg/ml, no thymocytes): 4,4 ± 0,5; Colony count ([3]; peptide dose 0,02 μg/ml, no thymocytes): 3,6 ± 0,5; Colony count ([3]; peptide dose 1,0 μg/ml, no thymocytes): 4,3 ± 0,3; Colony count ([3]; peptide dose 10,0 μg/ml, no thymocytes): 4,3 ± 0,1; Colony count ([3]; peptide dose 10,0 μg/ml, with thymocytes 2 × 10^7 cells): 8,7 ± 0,4; Colony count ([3]; peptide dose 20,0 μg/ml, no thymocytes): 3,9 ± 0,4; Colony count [4, 7]: 6,6 ± 0,5; CFU-S count [4, 7]: 917; Colony count [4, 8]: 4,7 ± 0,6; CFU-S count [4, 8]: 653; Colony count ([4]; Peptide IP to donor mice 2 days before + thymocytes): 9,4 ± 0,9; Colony count [4, 9]: 6,0 ± 0,9; CFU-S count [4, 9]: 1098; Average colony count (CFU-S in S-phase; iDD 1 day before marrow extraction, + 3H): 5,8 ± 0,5; Average colony count (CFU-S in S-phase; iDD 1 day before marrow extraction, without 3H): 8,3 ± 0,4; % CFU-S in S-phase (CFU-S in S-phase; iDD 1 day): 50,6%; Average colony count (CFU-S in S-phase; iDD 2 days before marrow extraction, + 3H): 2,8 ± 0,2; Average colony count (CFU-S in S-phase; iDD 2 days before marrow extraction, without 3H): 3,5 ± 0,2; % CFU-S in S-phase (CFU-S in S-phase; iDD 2 days): 5,8%; CFU-S taking root, % ([5]; C57B1 marrow to F1, Cyclosporin A 25μg/kg sc, iDD 10μg/kg ip, untreated 17,3): 43%; Average colony count ([5]; C57B1 marrow to F1, daily 5 days, Cyclosporin A 25μg/kg sc, iDD 10μg/kg ip, per 10^5 cells, untreated 1,7 ± 0,3): 4,2 ± 0,3; MCL (Medium continuation of life) ([5]; after 42 days, control 14,3): 6,0; Survived mice, % ([5]; after 42 days, control 50): 93%; Caryocytes in blood ([6]; K+ iDD: iDD 10 μg/kg ip, 6 weeks, intact 5,4 + 1,0): 3,8 + 0,3 thousand/μl; Lymphocytes, % ([6]; K+ iDD: iDD 10 μg/kg ip, 6 weeks, intact 43): 19%; Caryocytes in blood [6, 10]: 5,2 + 0,6* thousand/μl; Lymphocytes, % [6, 10]: 40* %; Caryocytes in blood [6, 11]: 4,2 + 0,3 thousand/μl; Lymphocytes, % [6, 11]: 21,5%; Increase of lymphocyte count versus control ([6]; schemes K+iDD and iDD): 6-7 times
